In article PMC7962978, “PSMA-D4 Radioligand for Targeted Therapy of Prostate Cancer: Synthesis, Characteristics and Preliminary Assessment of Biological Properties” (International Journal of Molecular Sciences, 2021):

Assays:
LNCaP tumor-bearing mice [1] = assay: Cerenkov luminescence imaging (CLI) of LNCaP tumor-bearing mice; assay type: in vivo; details: 2-48 h p.i.
Procedure: The PhotonIMAGER Optima system (Biospace Lab, Nesles-la-Vallée, France) was used for the non-invasive detection, localization, and quantification of yttrium-90 signal from live animals based on Cerenkov luminescence imaging. It was feasible due to high-energy β^− particle emission produces continuous spectrum light photons or Cerenkov radiation. Optical imaging of [^90Y]Y-PSMA-D4 in LNCaP cell grafted mice was performed contemporaneously with ex vivo studies. The animals were placed individually in an induction chamber, where anaesthesia was induced with 5% isoflurane (Iso-Vet, Piramal Healthcare UK Limited, West Drayton, UK) in 100% oxygen with a delivery rate of 2 L min^−1 until loss of righting reflex. After induction, the animals were moved to the optical chamber. Anaesthesia was then maintained with 1.5–2% isoflurane in 100% oxygen with a flow of 1.5 L min^−1 administered through a facemask connected to a coaxial circuit. Body temperature was maintained at 37 °C by a heating table inside the chamber. At recovery, all animals received 100% oxygen until recovery of righting reflex. No mice were restrained during anaesthesia.

[2] = Lipophilicity determination (logD), shake-flask method; assay type: physicochemical; details: n-octanol / PBS pH 7.4, shake-flask
Procedure: The partition coefficient logD of the radioligands was determined by the shake-flask method. The solution of 10 to 50 MBq of radiolabeled PSMA ligands (D-4, 617, 11, I&T) in 1.0 mL of phosphate-buffered saline (PBS, pH 7.4) was added to 1.0 mL of presaturated n-octanol solution (n = 3). Vials were shaken vigorously for 10 min. To achieve quantitative phase separation, the vials were centrifuged at 1600 rpm for 5 min. The radioactivity concentration in a defined volume of both the aqueous and the organic phase in six replicates each was measured in a γ-counter (Wizard 1470, Wallac, Turku, Finland). The partition coefficient was calculated as the logarithm of the ratio between counts per minute (cpm) measured in the n-octanol phase to the PBS phase counts.

LNCaP cells = assay: Cell uptake (total binding) and internalization in LNCaP cells; assay type: cell-based, human; details: 37 °C, 2 h
Procedure: To determine cell uptake and internalization of [^177Lu]Lu-PSMA-D4 and [^90Y]Y-PSMA-D4, LNCaP cells (5 × 10^5 cells well^−1) were incubated in un-supplemented RPMI 1640 medium with one concentration of tested radioligands on 12-well plates in 37 °C per 2 h. After the appropriate time, the medium was removed, and cells were washed twice using phosphate buffer saline (PBS, IITD PAN, Wroclaw, Poland). The cells were treated twice with 1 mL of 50 mM glycine in 0.1 M NaCl at a pH of 2.8 and incubated for 5 min at room temperature to collect extracellularly bound compound. The internalization was determined by measuring the radioactivity of 1mL of 1 M NaOH used for cell lysis. Total binding was calculated as a sum of the membrane and internalized fractions measured using Wallac Wizard 1470 γ counter. As a control, [^177Lu]Lu-PSMA-617 and [^68Ga]Ga-PSMA-11 were used.

LNCaP tumor-bearing mice [3] = assay: Ex vivo biodistribution in mice bearing LNCaP tumor
Procedure: An experimental tumor murine model was induced using LNCaP cell, which grew to 80–90% confluence before trypsinization and formulation in Matrixgel™ Basement Membrane Matrix (Bedford, MA, USA) for implantation into mice. The mice were subcutaneously injected in the shoulder with 200 mcL bolus containing a suspension of 10^6 freshly harvested cell line LNCaP in Matrixgel™. This procedure was performed under anaesthesia with 2% isoflurane. The animals were kept under pathogen-free condition, and experiments were performed 2–3 weeks later when a tumor reached a volume of approximately 150 ± 60 mm^3. Then, the animals were randomized into two groups (25 mice per group, five mice per time point): Group 1, treated with a single intravenous injection of [^90Y]Y-PSMA-D4 (0.1 mL, 0.1 mcg, 15.5 MBq, SA 16.7 GBq mg^−1 = 17.2 GBq mcmol^−1) and Group 2, treated with a single intravenous injection of [^47Sc]Sc-PSMA-D4 (0.1 mL, 0.19 mcg, 10 MBq, SA 4.8 GBq mg^−1 = 4.57 GBq mcmol^−1).
At 1, 2, 4, 6, 24, and 48 h after injection, the animals were euthanized by cervical dislocation and dissected. Selected organs and tissues were assayed for their radioactivity and weighted. The physiological distribution was calculated and expressed in terms of the percentage of administrated radioactivity found in each of the selected organs or tissues per gram (%ID g^−1).
Results are provided as mean ± SD. The results of physiological distribution are presented as a percentage of the dose administered per gram of tissue (%ID g^−1) as average value with standard deviation (%ID g^−1; mean ± standard deviation (SD)) with n representing the number of animals per group. Data were statistically analyzed using GraphPad Prism version 8.0.0 for Window.

PSMA antigen = biological target: T1, PSMA antigen (Homo sapiens, UniProt Q04609); assay: Saturation radioligand binding assay on LNCaP (PSMA positive) and PC3 (PSMA negative) cell membranes
T1 construct: PSMA antigen expressed on LNCaP cell membranes; endogenous in cells; host or cells: LNCaP cell membranes (PC3 membranes as PSMA-negative control)
Procedure: The equilibrium constant (KD) was determined by a saturation binding experiment performed in PSMA positive LNCaP and PSMA negative PC3 cell membranes isolated according to the procedure developed by Fichna et al.. The 50 mcL of LNCaP and PC3 cell membranes were seeded on special MultiScreen™ 96 well filter plates (Merck, Warsaw, Poland) and incubated for 2 h with increasing concentration of [^177Lu]Lu-PSMA-D4, [^90Y]Y-PSMA-D4, and […] (0.016–194 nM) at 37 °C. After incubation, the unbound radiocomplexes were filtered under vacuum, and the membranes were washed twice using PBS. The filters containing membranes with the attached radiotracer were extruded into tubes using MultiScreen Multile Punch (Merck). The number of associated inhibitors was determined by measuring the radioactivity of squeezed filters using Wallac Wizard 1470 γ counter. The KD and Bmax were calculated by nonlinear regression using the GraphPad Prism statistic program.

T1 sequence (Q04609 whole entry): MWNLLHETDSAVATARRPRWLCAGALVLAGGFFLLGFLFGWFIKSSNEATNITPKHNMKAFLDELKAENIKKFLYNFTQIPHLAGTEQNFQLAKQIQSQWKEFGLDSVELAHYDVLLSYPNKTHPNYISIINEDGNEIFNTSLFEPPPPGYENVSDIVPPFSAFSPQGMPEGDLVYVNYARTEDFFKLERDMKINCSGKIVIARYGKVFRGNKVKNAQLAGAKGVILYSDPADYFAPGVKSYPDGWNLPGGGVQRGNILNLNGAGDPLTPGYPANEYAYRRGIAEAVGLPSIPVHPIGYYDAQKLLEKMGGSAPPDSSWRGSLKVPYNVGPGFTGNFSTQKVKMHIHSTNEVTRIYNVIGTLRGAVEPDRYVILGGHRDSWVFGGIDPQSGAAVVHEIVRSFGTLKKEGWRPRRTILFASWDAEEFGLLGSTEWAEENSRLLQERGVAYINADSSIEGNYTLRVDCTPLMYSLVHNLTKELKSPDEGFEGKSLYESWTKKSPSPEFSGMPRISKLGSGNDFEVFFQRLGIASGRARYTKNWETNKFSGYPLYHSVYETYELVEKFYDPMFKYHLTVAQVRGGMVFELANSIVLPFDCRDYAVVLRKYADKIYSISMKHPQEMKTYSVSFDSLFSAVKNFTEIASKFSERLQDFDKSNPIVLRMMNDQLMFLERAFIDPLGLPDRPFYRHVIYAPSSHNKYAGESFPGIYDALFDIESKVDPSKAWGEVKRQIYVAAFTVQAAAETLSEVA

- logD [2]: −5.18 ± 0.04
- T/B (ratio tumor to blood) (LNCaP tumor-bearing mice [3]; 2 h after i.v. injection): 323.7
- T/K (ratio tumor to kidneys) (LNCaP tumor-bearing mice [3]; 2 h after i.v. injection): 7.6
- T/M (ratio tumor to muscle) (LNCaP tumor-bearing mice [3]; 2 h after i.v. injection): 97.0
- blood (LNCaP tumor-bearing mice [3]; 2 h after i.v. injection): 0.06 ± 0.01 %ID g^−1
- kidneys (LNCaP tumor-bearing mice [3]; 2 h after i.v. injection): 2.70 ± 0.20 %ID g^−1
- large intestine (LNCaP tumor-bearing mice [3]; 2 h after i.v. injection): 0.12 ± 0.05 %ID g^−1
- liver (LNCaP tumor-bearing mice [3]; 2 h after i.v. injection): 0.08 ± 0.00 %ID g^−1
- muscle (LNCaP tumor-bearing mice [3]; 2 h after i.v. injection): 0.21 ± 0.13 %ID g^−1
- small intestine (LNCaP tumor-bearing mice [3]; 2 h after i.v. injection): 0.32 ± 0.13 %ID g^−1
- spleen (LNCaP tumor-bearing mice [3]; 2 h after i.v. injection): 0.19 ± 0.06 %ID g^−1
- stomach (LNCaP tumor-bearing mice [3]; 2 h after i.v. injection): 0.10 ± 0.04 %ID g^−1
- tumor (LNCaP tumor-bearing mice [3]; 2 h after i.v. injection): 20.24 ± 5.52 %ID g^−1
- urine (LNCaP tumor-bearing mice [3]; 2 h after i.v. injection): 96.08 ± 0.53 %ID
- T/B (ratio tumor to blood) (LNCaP tumor-bearing mice [3]; 4 h after i.v. injection): 312.9
- T/K (ratio tumor to kidneys) (LNCaP tumor-bearing mice [3]; 4 h after i.v. injection): 9.7
- T/M (ratio tumor to muscle) (LNCaP tumor-bearing mice [3]; 4 h after i.v. injection): 324.4
- blood (LNCaP tumor-bearing mice [3]; 4 h after i.v. injection): 0.05 ± 0.03 %ID g^−1
- kidneys (LNCaP tumor-bearing mice [3]; 4 h after i.v. injection): 1.70 ± 0.13 %ID g^−1
- large intestine (LNCaP tumor-bearing mice [3]; 4 h after i.v. injection): 0.32 ± 0.16 %ID g^−1
- liver (LNCaP tumor-bearing mice [3]; 4 h after i.v. injection): 0.08 ± 0.01 %ID g^−1
- muscle (LNCaP tumor-bearing mice [3]; 4 h after i.v. injection): 0.05 ± 0.02 %ID g^−1
- small intestine (LNCaP tumor-bearing mice [3]; 4 h after i.v. injection): 0.30 ± 0.14 %ID g^−1
- spleen (LNCaP tumor-bearing mice [3]; 4 h after i.v. injection): 0.17 ± 0.06 %ID g^−1
- stomach (LNCaP tumor-bearing mice [3]; 4 h after i.v. injection): 0.11 ± 0.05 %ID g^−1
- tumor (LNCaP tumor-bearing mice [3]; 4 h after i.v. injection): 16.40 ± 6.88 %ID g^−1
- urine (LNCaP tumor-bearing mice [3]; 4 h after i.v. injection): 95.47 ± 3.07 %ID
- T/B (ratio tumor to blood) (LNCaP tumor-bearing mice [3]; 6 h after i.v. injection): 131.2
- T/K (ratio tumor to kidneys) (LNCaP tumor-bearing mice [3]; 6 h after i.v. injection): 8.4
- T/M (ratio tumor to muscle) (LNCaP tumor-bearing mice [3]; 6 h after i.v. injection): 983.7
- blood (LNCaP tumor-bearing mice [3]; 6 h after i.v. injection): 0.06 ± 0.01 %ID g^−1
- kidneys (LNCaP tumor-bearing mice [3]; 6 h after i.v. injection): 0.98 ± 0.38 %ID g^−1
- large intestine (LNCaP tumor-bearing mice [3]; 6 h after i.v. injection): 0.20 ± 0.02 %ID g^−1
- liver (LNCaP tumor-bearing mice [3]; 6 h after i.v. injection): 0.31 ± 0.07 %ID g^−1
- muscle (LNCaP tumor-bearing mice [3]; 6 h after i.v. injection): 0.01 ± 0.01 %ID g^−1
- small intestine (LNCaP tumor-bearing mice [3]; 6 h after i.v. injection): 0.14 ± 0.11 %ID g^−1
- spleen (LNCaP tumor-bearing mice [3]; 6 h after i.v. injection): 1.05 ± 0.29 %ID g^−1
- stomach (LNCaP tumor-bearing mice [3]; 6 h after i.v. injection): 0.04 ± 0.03 %ID g^−1
- tumor (LNCaP tumor-bearing mice [3]; 6 h after i.v. injection): 8.28 ± 1.97 %ID g^−1
- urine (LNCaP tumor-bearing mice [3]; 6 h after i.v. injection): 96.57 ± 2.44 %ID
- T/B (ratio tumor to blood) (LNCaP tumor-bearing mice [3]; 24 h after i.v. injection): 257.6
- T/K (ratio tumor to kidneys) (LNCaP tumor-bearing mice [3]; 24 h after i.v. injection): 29.0
- T/M (ratio tumor to muscle) (LNCaP tumor-bearing mice [3]; 24 h after i.v. injection): 387.4
- blood (LNCaP tumor-bearing mice [3]; 24 h after i.v. injection): 0.03 ± 0.03 %ID g^−1
- kidneys (LNCaP tumor-bearing mice [3]; 24 h after i.v. injection): 0.30 ± 0.12 %ID g^−1
- large intestine (LNCaP tumor-bearing mice [3]; 24 h after i.v. injection): 0.41 ± 0.15 %ID g^−1
- liver (LNCaP tumor-bearing mice [3]; 24 h after i.v. injection): 0.04 ± 0.01 %ID g^−1
- muscle (LNCaP tumor-bearing mice [3]; 24 h after i.v. injection): 0.02 ± 0.02 %ID g^−1
- small intestine (LNCaP tumor-bearing mice [3]; 24 h after i.v. injection): 0.20 ± 0.20 %ID g^−1
- spleen (LNCaP tumor-bearing mice [3]; 24 h after i.v. injection): 0.12 ± 0.06 %ID g^−1
- stomach (LNCaP tumor-bearing mice [3]; 24 h after i.v. injection): 0.06 ± 0.05 %ID g^−1
- tumor (LNCaP tumor-bearing mice [3]; 24 h after i.v. injection): 8.33 ± 3.09 %ID g^−1
- urine (LNCaP tumor-bearing mice [3]; 24 h after i.v. injection): 94.79 ± 7.51 %ID
- T/B (ratio tumor to blood) (LNCaP tumor-bearing mice [3]; 48 h after i.v. injection): 193.0
- T/K (ratio tumor to kidneys) (LNCaP tumor-bearing mice [3]; 48 h after i.v. injection): 68.4
- T/M (ratio tumor to muscle) (LNCaP tumor-bearing mice [3]; 48 h after i.v. injection): 351.4
- blood (LNCaP tumor-bearing mice [3]; 48 h after i.v. injection): 0.04 ± 0.02 %ID g^−1
- kidneys (LNCaP tumor-bearing mice [3]; 48 h after i.v. injection): 0.12 ± 0.03 %ID g^−1
- large intestine (LNCaP tumor-bearing mice [3]; 48 h after i.v. injection): 0.84 ± 0.56 %ID g^−1
- liver (LNCaP tumor-bearing mice [3]; 48 h after i.v. injection): 0.17 ± 0.07 %ID g^−1
- muscle (LNCaP tumor-bearing mice [3]; 48 h after i.v. injection): 0.02 ± 0.01 %ID g^−1
- small intestine (LNCaP tumor-bearing mice [3]; 48 h after i.v. injection): 0.14 ± 0.07 %ID g^−1
- spleen (LNCaP tumor-bearing mice [3]; 48 h after i.v. injection): 0.97 ± 0.62 %ID g^−1
- stomach (LNCaP tumor-bearing mice [3]; 48 h after i.v. injection): 0.03 ± 0.03 %ID g^−1
- tumor (LNCaP tumor-bearing mice [3]; 48 h after i.v. injection): 8.03 ± 7.31 %ID g^−1
- urine (LNCaP tumor-bearing mice [3]; 48 h after i.v. injection): 97.75 ± 0.34 %ID
- Kd (PSMA antigen; LNCaP cell membranes, 2 h, 37 °C): 4.5 ± 2.1 nM
- Specific Binding (PSMA antigen; total binding on LNCaP minus non-specific binding on PC3 membranes): 99.9 ± 0.1%
Compound: O=C([O-])CN1CCN(CC(=O)[O-])CCN(CC(=O)NCC2CCC(C(=O)NC(Cc3c[nH]c4ccccc34)C(=O)NCCCCC(NC(=O)NC(CCC(=O)O)C(=O)O)C(=O)O)CC2)CCN(CC(=O)[O-])CC1.[90Y+3] (centres unmarked) [[^90Y]Y-PSMA-D4]
- in vivo CLI tumor visualization (LNCaP tumor-bearing mice [1]): excellent tumor visualization
- Internalization (LNCaP cells): 35.4%
- Total Binding (LNCaP cells): 16.8%
